Measurements reported in ChEMBL document CHEMBL5465560, “Selectivity Literature for EUbOPEN Chemogenomic Library” (2024).

Tests used:
[1] = biological target: T1, Serine/threonine-protein kinase Nek5 (Homo sapiens) (UniProt Q6P3R8); assay: Selectivity interaction (KinomeScan (DiscoverX)) EUB0000607a NEK5; details: at 10 µM
T1 sequence (whole entry): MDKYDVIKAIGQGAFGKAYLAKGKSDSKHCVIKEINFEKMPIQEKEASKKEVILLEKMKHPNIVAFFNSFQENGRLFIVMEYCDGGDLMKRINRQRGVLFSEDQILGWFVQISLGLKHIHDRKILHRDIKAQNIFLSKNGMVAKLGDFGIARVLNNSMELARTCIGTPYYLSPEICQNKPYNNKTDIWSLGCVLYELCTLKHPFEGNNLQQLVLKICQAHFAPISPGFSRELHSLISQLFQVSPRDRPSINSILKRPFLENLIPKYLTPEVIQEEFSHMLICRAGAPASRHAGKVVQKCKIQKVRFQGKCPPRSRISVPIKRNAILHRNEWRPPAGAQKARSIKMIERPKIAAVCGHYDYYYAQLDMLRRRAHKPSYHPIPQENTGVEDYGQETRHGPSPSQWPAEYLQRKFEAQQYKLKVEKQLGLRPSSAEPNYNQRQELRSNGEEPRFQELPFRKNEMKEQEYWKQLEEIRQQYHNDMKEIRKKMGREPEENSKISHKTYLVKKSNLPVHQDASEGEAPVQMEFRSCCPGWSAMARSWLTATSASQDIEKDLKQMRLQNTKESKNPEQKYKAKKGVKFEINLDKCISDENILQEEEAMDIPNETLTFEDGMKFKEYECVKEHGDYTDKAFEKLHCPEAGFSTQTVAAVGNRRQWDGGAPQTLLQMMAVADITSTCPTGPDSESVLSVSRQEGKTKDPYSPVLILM

[2] = biological target: Cell division control protein 42 homolog (Homo sapiens) (UniProt P60953); assay: Selectivity interaction (Kinase panel (Invitrogen)) EUB0000639a CDC42; details: at 200 nM
[3] = biological target: T2, Serine/threonine-protein kinase 3 (Homo sapiens) (UniProt Q13188); assay: Selectivity interaction (KinomeScan (DiscoverX)) EUB0000695a STK3; details: at 100 nM
T2 sequence (whole entry): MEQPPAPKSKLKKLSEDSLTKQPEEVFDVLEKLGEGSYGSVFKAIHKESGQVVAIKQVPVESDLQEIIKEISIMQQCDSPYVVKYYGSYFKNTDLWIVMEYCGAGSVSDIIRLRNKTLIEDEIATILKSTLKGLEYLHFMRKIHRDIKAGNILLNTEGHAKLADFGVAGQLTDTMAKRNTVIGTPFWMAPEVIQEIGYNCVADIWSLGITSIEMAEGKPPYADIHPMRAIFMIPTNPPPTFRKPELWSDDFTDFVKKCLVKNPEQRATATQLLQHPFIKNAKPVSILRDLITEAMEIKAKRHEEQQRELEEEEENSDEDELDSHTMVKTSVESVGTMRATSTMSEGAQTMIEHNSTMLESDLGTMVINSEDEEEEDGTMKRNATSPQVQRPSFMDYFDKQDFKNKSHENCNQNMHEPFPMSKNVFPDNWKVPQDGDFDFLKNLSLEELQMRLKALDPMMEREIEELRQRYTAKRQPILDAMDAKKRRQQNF

SRSF protein kinase 1 = SRSF protein kinase 1 (Homo sapiens, UniProt Q96SB4); assay: Selectivity interaction (Kinase panel (DSF assay)) EUB0001559a SRPK1
[4] = biological target: Myosin light chain kinase, smooth muscle (Homo sapiens, UniProt Q15746); assay: Selectivity interaction (KinomeScan (DiscoverX)) EUB0000655a MYLK; details: at 10 µM
[5] = biological target: T3, Mitogen-activated protein kinase kinase kinase kinase 2 (Homo sapiens) (UniProt Q12851); assay: Selectivity interaction (KinomeScan (DiscoverX)) EUB0000618a MAP4K2; details: at 10 µM
T3 sequence (whole entry): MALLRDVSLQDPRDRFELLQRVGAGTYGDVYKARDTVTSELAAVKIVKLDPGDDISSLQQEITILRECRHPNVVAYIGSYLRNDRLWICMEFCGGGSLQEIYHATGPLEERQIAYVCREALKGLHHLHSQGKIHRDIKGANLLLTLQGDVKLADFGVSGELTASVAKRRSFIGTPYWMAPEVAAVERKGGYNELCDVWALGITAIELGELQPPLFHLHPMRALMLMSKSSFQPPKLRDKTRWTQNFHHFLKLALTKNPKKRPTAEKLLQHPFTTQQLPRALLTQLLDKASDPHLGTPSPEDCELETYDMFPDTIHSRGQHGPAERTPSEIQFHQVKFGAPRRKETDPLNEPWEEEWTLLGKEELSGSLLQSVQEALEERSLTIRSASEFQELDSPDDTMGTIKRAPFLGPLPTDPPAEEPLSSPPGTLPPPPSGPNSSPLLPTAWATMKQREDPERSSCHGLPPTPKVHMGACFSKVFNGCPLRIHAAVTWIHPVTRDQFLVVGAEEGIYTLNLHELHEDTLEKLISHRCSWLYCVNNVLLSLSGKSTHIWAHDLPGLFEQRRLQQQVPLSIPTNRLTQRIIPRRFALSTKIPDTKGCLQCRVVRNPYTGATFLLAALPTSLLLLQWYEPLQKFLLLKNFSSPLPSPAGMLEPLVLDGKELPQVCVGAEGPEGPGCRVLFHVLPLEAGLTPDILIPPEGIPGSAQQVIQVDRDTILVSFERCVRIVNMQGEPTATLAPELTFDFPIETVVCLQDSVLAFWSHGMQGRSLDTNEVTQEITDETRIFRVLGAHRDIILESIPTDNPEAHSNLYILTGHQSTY

Sequence of SRSF protein kinase 1 (Q96SB4 whole entry): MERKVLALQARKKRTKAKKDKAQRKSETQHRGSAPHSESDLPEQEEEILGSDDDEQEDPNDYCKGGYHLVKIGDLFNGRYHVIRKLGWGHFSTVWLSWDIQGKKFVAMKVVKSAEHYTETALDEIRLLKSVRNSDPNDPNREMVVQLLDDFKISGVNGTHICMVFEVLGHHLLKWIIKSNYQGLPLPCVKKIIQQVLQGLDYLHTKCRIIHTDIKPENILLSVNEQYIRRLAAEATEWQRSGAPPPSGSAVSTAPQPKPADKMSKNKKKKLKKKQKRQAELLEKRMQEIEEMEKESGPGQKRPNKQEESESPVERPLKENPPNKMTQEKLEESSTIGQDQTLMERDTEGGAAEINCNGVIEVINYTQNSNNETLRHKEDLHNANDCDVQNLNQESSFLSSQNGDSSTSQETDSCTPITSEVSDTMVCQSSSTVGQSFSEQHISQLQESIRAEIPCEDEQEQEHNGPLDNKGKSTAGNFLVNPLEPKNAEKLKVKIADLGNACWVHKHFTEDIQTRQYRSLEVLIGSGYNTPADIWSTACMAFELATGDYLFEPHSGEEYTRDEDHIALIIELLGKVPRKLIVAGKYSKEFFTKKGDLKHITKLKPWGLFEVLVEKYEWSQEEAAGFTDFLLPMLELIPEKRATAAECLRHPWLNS
Sequence of Myosin light chain kinase, smooth muscle (Q15746 whole entry): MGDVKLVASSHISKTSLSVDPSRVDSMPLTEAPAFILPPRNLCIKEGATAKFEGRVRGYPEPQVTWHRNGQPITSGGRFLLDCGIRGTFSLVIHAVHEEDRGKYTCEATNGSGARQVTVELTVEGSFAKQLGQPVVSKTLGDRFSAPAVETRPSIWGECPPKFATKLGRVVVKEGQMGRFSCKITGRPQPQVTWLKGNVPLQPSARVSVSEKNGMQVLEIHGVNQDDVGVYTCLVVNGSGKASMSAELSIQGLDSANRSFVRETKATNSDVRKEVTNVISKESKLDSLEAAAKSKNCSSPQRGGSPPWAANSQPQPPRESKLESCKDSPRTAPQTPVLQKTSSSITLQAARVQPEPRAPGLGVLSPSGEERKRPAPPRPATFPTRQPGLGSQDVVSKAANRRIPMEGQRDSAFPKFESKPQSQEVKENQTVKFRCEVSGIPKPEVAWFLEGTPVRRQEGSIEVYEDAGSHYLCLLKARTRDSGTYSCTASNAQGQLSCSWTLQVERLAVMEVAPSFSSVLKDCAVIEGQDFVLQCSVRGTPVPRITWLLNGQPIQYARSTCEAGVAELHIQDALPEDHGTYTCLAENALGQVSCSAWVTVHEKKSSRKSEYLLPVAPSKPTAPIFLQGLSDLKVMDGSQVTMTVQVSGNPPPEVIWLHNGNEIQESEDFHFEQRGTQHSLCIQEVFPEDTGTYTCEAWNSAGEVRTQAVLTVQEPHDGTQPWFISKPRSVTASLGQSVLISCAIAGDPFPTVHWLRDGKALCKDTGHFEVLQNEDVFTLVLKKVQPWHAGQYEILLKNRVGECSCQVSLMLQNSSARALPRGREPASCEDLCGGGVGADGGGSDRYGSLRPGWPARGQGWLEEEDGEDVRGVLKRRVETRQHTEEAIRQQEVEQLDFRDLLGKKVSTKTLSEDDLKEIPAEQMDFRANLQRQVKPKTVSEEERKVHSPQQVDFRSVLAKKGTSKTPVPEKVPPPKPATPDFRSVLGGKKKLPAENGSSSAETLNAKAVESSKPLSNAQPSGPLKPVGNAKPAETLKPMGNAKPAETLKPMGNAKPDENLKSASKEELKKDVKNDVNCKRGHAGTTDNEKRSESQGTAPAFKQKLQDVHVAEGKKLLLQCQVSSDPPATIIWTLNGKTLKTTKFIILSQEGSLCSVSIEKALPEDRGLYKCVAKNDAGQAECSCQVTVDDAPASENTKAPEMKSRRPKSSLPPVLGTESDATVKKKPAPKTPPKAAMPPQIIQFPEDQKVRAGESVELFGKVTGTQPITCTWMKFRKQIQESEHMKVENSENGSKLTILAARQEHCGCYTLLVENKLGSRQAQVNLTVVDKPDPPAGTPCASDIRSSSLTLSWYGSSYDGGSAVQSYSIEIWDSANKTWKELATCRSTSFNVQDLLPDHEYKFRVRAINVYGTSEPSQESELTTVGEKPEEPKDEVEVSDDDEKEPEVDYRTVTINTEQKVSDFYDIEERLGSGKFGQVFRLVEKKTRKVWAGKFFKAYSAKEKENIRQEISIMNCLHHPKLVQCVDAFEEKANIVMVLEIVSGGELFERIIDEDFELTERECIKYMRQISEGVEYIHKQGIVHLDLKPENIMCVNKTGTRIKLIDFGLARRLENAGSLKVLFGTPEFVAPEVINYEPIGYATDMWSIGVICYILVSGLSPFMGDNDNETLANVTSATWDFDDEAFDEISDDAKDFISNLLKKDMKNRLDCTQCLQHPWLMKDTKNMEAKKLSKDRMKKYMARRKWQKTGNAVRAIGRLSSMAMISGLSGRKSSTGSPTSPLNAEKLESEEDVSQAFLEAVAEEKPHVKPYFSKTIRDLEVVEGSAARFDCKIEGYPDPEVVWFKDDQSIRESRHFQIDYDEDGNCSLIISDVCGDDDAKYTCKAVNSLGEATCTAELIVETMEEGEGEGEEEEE
Sequence of Cell division control protein 42 homolog (Homo sapiens) (P60953 whole entry, looked up): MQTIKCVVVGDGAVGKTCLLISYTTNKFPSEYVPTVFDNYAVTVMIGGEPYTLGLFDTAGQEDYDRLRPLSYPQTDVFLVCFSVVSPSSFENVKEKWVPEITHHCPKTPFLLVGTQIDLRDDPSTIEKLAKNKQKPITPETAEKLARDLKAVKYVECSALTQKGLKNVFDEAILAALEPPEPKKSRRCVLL

SMILES: CNC(=O)Nc1ccc(-c2nc(N3CC4CCC(C3)O4)c3cnn(C4CCC5(CC4)OCCO5)c3n2)cc1
- % of control [1]: 81%

SMILES: CC[C@@H]1[C@H](F)C(=O)N[C@@H]1COc1nccc2cc(C(N)=O)c(OC)cc12 [ZIMLOVISERTIB]
- % of inhibition [2]: 10.2%

SMILES: Cc1cc(F)c(C(=O)Nc2cccc(-c3nncn3C(C)C)n2)cc1-n1cnc(C2CC2)c1
- % of control [3]: 100%

SMILES: CN(C(=O)c1cnn2cccnc12)c1cc2c(cc1N1CCOCC1)C(=O)N(C[C@@H](F)C(C)(C)O)C2
- dTM (SRSF protein kinase 1): 0.2 K

SMILES: CN(C)CCOc1ccc(-c2nc(-c3ccncc3)c(-c3ccc4c(c3)CC/C4=N\O)[nH]2)cc1
- % of control [4]: 98%

SMILES: O[C@H]1CC[C@H](Nc2ncc3nc(Nc4c(F)cc(F)cc4F)n([C@H]4CCOC4)c3n2)CC1
- % of control [5]: 91%
